The results in this text go back to ChEMBL document CHEMBL1154698, “Discovery of 3-aryl-4-isoxazolecarboxamides as TGR5 receptor agonists” (J Med Chem, 2009).

Each structure is given as a SMILES string. Converted amounts (≈) assume the structure as drawn. The source made the active and inactive calls. No cut-off for these calls is given here.

Data set [1] has as its target T1, G-protein coupled bile acid receptor 1 (Rattus norvegicus, UniProt Q80T02).
T1 sequence (Q80T02 whole entry): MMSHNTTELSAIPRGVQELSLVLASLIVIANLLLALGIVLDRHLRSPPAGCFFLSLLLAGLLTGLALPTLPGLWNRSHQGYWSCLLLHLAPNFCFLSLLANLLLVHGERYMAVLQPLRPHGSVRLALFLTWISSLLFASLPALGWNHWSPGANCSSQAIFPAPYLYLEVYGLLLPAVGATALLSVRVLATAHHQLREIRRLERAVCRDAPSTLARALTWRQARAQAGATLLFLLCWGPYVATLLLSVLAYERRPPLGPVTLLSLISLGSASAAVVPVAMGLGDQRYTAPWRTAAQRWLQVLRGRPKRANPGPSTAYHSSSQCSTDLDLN
Description: Agonist activity at rat TGR5 expressed in melanophores assessed as melanosome dispersion by melanophore assay. It is filed as functional.

The nature of data set [2]: Half life in CD1 rat at 2.5 mg/kg, iv or 5 mg/kg, po. Type of data set: ADME, organism-based. Particulars: in vivo.
Data set [3] can be described thus: Oral bioavailability in CD1 rat 5 mg/kg. It is filed as ADME, organism-based. The following applies: in vivo.
Data set [4] is described as follows: Permeability in artificial membrane assay. It is filed as ADME, cell membranes.
The subject of data set [5] is Canis familiaris. Description: Decrease in portal vein glucose levels in intrajejeunally dosed conscious Beagle dog at 1 mg.kg co-administered with glucose challenge. It is filed as functional, organism-based. Particulars: Canis lupus familiaris.
A short description of data set [6]: Aqueous solubility of the compound. It is filed as physicochemical. The following applies: buffer.
Data set [7] can be described thus: Intrinsic clearance in rat hepatocytes. It is filed as ADME, cell-based, Liver, Hepatocyte.
Data set [8] is described as follows: Volume of distribution at steady state in CD1 rat at 2.5 mg/kg, iv or 5 mg/kg, po. It is filed as ADME, organism-based. The following applies: in vivo, read-out: Vdss.
The nature of data set [9]: Clearance in CD1 rat at 2.5 mg/kg, iv or 5 mg/kg, po. It is filed as ADME, organism-based. Particulars: in vivo.
A short description of data set [10]: Intrinsic clearance in dog hepatocytes. It is filed as ADME, cell-based, Canis lupus familiaris, Liver, Hepatocyte.
The target of data set [11] is Cytochrome P450 2D6 (Homo sapiens, UniProt P10635). The data set is described as follows: Inhibition of CYP2D6. It is filed as ADME.
For data set [12], the system named is U2OS. Description: Increase in MRE/CRE-driven gene expression in human U2OS cells by luciferase reporter gene assay. It is filed as functional, cell-based. For orientation: A reporter such as luciferase makes a cellular process visible.
For data set [13], the system named is Canis familiaris. Description: Increase in GLP1 secretion in hepatic portal vein of intrajejeunally dosed conscious Beagle dog at 1 mg.kg co-administered with glucose challenge. Particulars: Canis lupus familiaris. It is filed as functional, organism-based.
Data set [14] concerns Melanophore. The data set is described as follows: Induction of melanosome dispersion in melanophores. Type of data set: functional, cell-based. Particulars: Xenopus laevis.
The target in data set [15] is Cytochrome P450 2C9 (Homo sapiens, UniProt P11712). The data set is described as follows: Inhibition of CYP2C9. It is filed as ADME.
A short description of data set [16]: Agonist activity at canine TGR5 expressed in melanophores assessed as melanosome dispersion by melanophore assay. It is filed as functional, Canis lupus familiaris.
Data set [17] relates to Monocyte. The data set is described as follows: Inhibition of LPS-stimulated TNFalpha secretion in human primary monocytes. Type of data set: functional, cell-based.
The nature of data set [18]: Clearance in dog at 3 mg/kg, iv or 30 mg/kg, po. The following applies: in vivo. Type of data set: ADME, organism-based, Canis lupus familiaris.
Data set [19] can be described thus: Half life in CD1 rat at 3 mg/kg, iv or 30 mg/kg, po. It is filed as ADME, organism-based. The following applies: in vivo.
Data set [20] in a line: Oral bioavailability in CD1 rat at 30 mg/kg. It is filed as ADME, organism-based. Particulars: in vivo.
The nature of data set [21]: Clearance in CD1 rat at 3 mg/kg, iv or 30 mg/kg, po. It is filed as ADME, organism-based. The following applies: in vivo.
Data set [22] in a line: Half life in dog at 3 mg/kg, iv or 30 mg/kg, po. It is filed as ADME, organism-based, Canis lupus familiaris. Particulars: in vivo.
Data set [23] in a line: Oral bioavailability in dog at 30 mg/kg. The following applies: in vivo. Type of data set: ADME, organism-based, Canis lupus familiaris.
The nature of data set [24]: Volume of distribution at steady state in CD1 rat at 3 mg/kg, iv or 30 mg/kg, po. The following applies: in vivo, read-out: Vdss. Type of data set: ADME, organism-based.
The nature of data set [25]: Volume of distribution at steady state in dog at 3 mg/kg, iv or 30 mg/kg, po. The following applies: in vivo, read-out: Vdss. It is filed as ADME, organism-based, Canis lupus familiaris.

Cytochrome P450 2C9, sequence (P11712 whole entry): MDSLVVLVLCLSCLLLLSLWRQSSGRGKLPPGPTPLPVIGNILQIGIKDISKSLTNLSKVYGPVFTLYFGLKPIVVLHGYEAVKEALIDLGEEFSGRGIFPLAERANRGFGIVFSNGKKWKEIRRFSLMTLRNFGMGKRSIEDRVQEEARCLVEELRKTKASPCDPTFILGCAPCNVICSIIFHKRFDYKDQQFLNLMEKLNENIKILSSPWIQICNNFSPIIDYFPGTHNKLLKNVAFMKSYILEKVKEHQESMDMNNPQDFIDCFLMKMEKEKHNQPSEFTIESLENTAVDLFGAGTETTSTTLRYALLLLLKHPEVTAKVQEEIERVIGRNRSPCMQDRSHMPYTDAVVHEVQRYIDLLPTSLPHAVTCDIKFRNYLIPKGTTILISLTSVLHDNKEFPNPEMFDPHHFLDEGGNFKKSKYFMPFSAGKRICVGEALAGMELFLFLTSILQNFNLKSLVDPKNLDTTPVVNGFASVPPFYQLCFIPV
Cytochrome P450 2D6, sequence (P10635 whole entry): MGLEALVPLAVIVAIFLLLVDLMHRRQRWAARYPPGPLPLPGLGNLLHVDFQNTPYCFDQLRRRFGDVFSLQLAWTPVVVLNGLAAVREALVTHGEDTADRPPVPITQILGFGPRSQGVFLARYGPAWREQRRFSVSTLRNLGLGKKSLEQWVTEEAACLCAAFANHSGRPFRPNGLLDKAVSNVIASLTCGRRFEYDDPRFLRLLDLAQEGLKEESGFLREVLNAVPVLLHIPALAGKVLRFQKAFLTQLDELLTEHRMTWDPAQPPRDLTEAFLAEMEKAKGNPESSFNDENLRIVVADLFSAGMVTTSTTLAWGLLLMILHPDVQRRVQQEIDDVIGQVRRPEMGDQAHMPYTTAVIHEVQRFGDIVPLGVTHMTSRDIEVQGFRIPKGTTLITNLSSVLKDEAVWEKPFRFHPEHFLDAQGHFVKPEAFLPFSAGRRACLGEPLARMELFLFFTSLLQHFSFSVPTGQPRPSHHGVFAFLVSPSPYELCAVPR

By EC50 is commonly meant the concentration needed to bring the measured effect to its halfway point. For orientation: half-life means the time in which the quantity being followed falls by half. One may read the bioavailability as dose-corrected exposure relative to a reference, in per cent. Low readings indicate little systemic uptake, high ones much systemic uptake. One may read the solubility as the dissolved amount per volume that the medium holds. High values mean much dissolved substance, low ones little dissolved substance. By IC50 is commonly meant the point on the concentration scale where inhibition reaches its midpoint. Lower therefore signals greater potency in that assay. As a reminder, the pEC50 is the EC50 on a negative log10 scale, so that one unit is a factor of ten. `Cc1onc(-c2ccccc2Cl)c1C(=O)N(C)c1ccc(Cl)cc1`: the EC50 was 2 µM in data set [1], greater than 50.1 µM in data set [12] and 20 µM in [14]. For the same compound, the half-life in [2] is 6.6 h. Also, the bioavailability in data set [3] stood at 1%. Besides, the permeability in [4] turned out to be 422 nanometer/sec. Also, the result in [5] and in data set [13] was Active. Further, in data set [6], the concentration in solution (solubility) came to 246 µM (≈ 88.9 µg/mL). The CLint in data set [7] was 48 mL/min/g; in data set [10] it was 90 mL/min/g. Also, the Vd in data set [8] worked out at 7.1 L/kg. In [9], this compound returned a clearance of 5.1 L/h/kg. The IC50 in [11] is greater than 10 µM; in data set [15], greater than 10 µM; in [17], 0.158 µM. In addition, the pEC50 in data set [16] was determined as 7.2.
Compound `CCN(C(=O)c1c(-c2ccccc2Cl)noc1C)c1cccc(Cl)c1` came in with a permeability in data set [4] of 310 nanometer/sec. For the same compound, the solubility in data set [6] was 134 µM (≈ 50.3 µg/mL).
In data set [4], `Cc1ccc(N(C)C(=O)c2c(-c3ccccc3Cl)noc2C)cc1Cl` gave a permeability of 257 nanometer/sec. In addition, the solubility in data set [6] was 112 µM (≈ 42 µg/mL). The results for the CLint in data set [7] and in data set [10] were 54 mL/min/g and 111 mL/min/g, respectively. Further, the clearance in data set [18] was found to be 2.34 L/h/kg; in data set [21], 8.88 L/h/kg. In addition, the half-life in data set [19] was 8.7 h; in [22], 5.2 h. The bioavailability is less than 1% in data set [20] and 0.3% in data set [23]. For the same compound, the Vd in [24] stood at 40 L/kg; in data set [25], 8.6 L/kg.
